Measurements published in ChEMBL document CHEMBL1134688, “Synthesis, biological evaluation, and pharmacophore generation of new pyridazinone derivatives with affinity toward alpha(1)- and alpha(2)-adrenoceptors” (J Med Chem, 2001).

target: T1, Adrenergic receptor alpha-1 (Rattus norvegicus, UniProt P15823+P23944+P43140); assay: Alpha-1 adrenergic receptor binding affinity of the compound, value taken from literature; assay type: protein assay
T1 sequence (P15823 whole entry): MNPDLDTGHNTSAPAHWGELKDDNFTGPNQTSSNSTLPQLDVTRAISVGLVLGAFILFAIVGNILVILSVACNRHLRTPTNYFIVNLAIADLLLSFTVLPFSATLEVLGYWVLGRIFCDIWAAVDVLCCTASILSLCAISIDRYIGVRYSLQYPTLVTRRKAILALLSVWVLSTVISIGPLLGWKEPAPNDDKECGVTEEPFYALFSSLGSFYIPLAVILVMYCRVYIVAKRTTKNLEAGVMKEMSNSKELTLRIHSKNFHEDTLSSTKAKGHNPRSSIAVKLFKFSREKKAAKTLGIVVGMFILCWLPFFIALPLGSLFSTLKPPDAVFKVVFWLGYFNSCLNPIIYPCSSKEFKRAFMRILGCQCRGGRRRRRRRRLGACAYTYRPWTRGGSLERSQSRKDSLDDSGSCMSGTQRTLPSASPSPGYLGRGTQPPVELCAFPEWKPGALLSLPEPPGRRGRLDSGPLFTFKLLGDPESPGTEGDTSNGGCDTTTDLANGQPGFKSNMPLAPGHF
T1 sequence (P23944 whole entry): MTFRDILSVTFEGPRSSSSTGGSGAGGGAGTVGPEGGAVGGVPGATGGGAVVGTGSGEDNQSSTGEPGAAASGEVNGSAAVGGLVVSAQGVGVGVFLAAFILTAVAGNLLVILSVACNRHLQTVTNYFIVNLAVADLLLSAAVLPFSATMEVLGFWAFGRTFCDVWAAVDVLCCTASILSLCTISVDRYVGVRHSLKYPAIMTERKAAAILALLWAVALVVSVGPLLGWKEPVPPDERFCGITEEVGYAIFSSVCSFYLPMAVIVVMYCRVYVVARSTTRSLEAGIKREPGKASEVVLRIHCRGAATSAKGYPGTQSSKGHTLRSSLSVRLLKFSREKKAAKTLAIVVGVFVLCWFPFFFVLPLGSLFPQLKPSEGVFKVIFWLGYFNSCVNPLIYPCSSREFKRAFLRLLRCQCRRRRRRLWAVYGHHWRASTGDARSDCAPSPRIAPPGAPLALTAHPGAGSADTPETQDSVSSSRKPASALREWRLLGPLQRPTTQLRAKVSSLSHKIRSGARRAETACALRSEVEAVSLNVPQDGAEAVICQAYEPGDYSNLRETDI
T1 sequence (P43140 whole entry): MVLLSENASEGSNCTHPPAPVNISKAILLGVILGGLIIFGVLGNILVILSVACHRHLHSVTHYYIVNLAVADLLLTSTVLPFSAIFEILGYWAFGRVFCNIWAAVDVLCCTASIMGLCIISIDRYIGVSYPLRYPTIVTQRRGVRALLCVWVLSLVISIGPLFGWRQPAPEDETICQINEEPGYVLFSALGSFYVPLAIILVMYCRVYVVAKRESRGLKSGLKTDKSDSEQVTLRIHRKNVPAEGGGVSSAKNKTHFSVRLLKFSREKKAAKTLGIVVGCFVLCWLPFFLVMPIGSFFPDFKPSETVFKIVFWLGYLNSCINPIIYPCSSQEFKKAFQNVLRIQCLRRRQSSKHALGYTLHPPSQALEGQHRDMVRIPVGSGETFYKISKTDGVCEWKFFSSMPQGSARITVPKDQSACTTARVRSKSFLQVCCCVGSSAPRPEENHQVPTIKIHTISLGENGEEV

Compound | Ki
COc1ccccc1N1CCN(CCNC(=O)C23CC4CC(CC(C4)C2)C3)CC1 | 17.5 nM
COc1ccccc1N1CCN(CCCCN2C(=O)CCC2=O)CC1 | 11.9 nM
COc1ccccc1N1CCN(CCCCN2C(=O)CCc3ccccc32)CC1 | 0.34 nM
O=C1CCc2ccccc2N1CCCCN1CCN(c2ncccn2)CC1 | 374 nM
CCC(=O)NCCN1CCN(c2ccccc2OC)CC1 | 258 nM

target: T1, Adrenergic receptor alpha-1; assay: Alpha-1-adrenergic receptor binding affinity of the compound, value taken from literature; assay type: protein assay

Compound | Ki
COc1ccccc1N1CCN(CCn2c(=O)[nH]c3c([nH]c4ccccc43)c2=O)CC1 | 0.21 nM
